Consider 22 molecules from patent US9067888B2, “Inhibitors of protein kinases” (Ingenium Pharmaceuticals GmbH, priority 2010, dated 2015).

Experiment [1] relates to TNF-alpha inducible reporter gene. The experiment in a line: Inhibition of TNF-alpha-induced reporter gene expression (luciferase) in HeLa-derived cell line. The settings on record: remaining luciferase activity in presence of 3 μM of compound as ratio of DMSO-treated cells, TNF-alpha 50 ng/ml; for activity at 3 µM: Homo sapiens, 6 h, read-out: Efficacy (ratio to DMSO) TNF-alpha induced response; for Efficacy (ratio to DMSO) TNF-alpha induced response: 6 hours. The class given is cell-based, human. An excerpt: TNF-alpha responsive cell lines like the human HeLa cell line can be used to study cellular responses to TNF-alpha, e.g. transcriptional regulation of a transfected TNF-alpha responsive reporter gene, and effects of kinase inhibitors on this response.
In order to analyse compound effects on TNF-alpha mediated transcriptional response, a HeLa-derived cell line stably transfected with a TNF-alpha inducible reporter gene was used (Panomics Catalog No. RC0013). The cell line was obtained by co-transfection of a luciferase reporter gene (Panomics P/N LR0051) and pHyg into human cervical epithelial HeLa cells, followed by hygromycin selection. TNFα-induced luciferase activity was used to select clones from the hygromycin-resistant cells. The cell line was maintained and stimulated according to the manufacturer's instructions. Briefly, cells were seeded at 5×10^5/well in 1 ml of growth medium in a 12-well plate and incubated in a humidified incubator at 37° C. and 5% CO2 for 24 hours. Medium was replaced with 1 ml of serum free medium and compounds were added up to concentrations of […]. After 1 hour of incubation, TNF-alpha was added to achieve a final concentration of 50 ng/ml. The culture dish was further incubated in a humidified incubator at 37° C. and 5% CO2 for 6 hours, medium was removed and 100 μL of lysis buffer were added to each well and the assay for luciferase activity was performed according to assay manufacturer's (Promega P/N E1500) recommendations. For more information about this cell line, go to worldwide website www(dot)panomics.com.
Compound effects on TNF-alpha-induced reporter gene expression is shown in column 6 in Table 1 given below. Indicated is the remaining luciferase activity after incubation in presence of 3 μM of compound as a ratio of the activity of DMSO-treated cells without compound. Specifically, it was intended to distinguish cell permeable compounds from other compounds having significant inhibitory potency with regard to other CDKs, but fail to penetrate cells or are unstable under the conditions of the experiment.

Another experiment deals with CDK9 (Homo sapiens (Human), UniProt P50750). Nature of the experiment: In vitro kinase inhibition, KinaseProfiler service of Millipore, residual activity. The experiment is classed as biochemical. The following applies: for remaining activity at 0.01 µM / CDK9 10 nM (RA in %): residual activity at 10 nM compound; for remaining activity at 0.01 µM: read-out: CDK9 10 nM (RA in %); for remaining activity at 0.1 µM / CDK9 100 nM (RA in %): residual activity at 100 nM compound; for remaining activity at 0.1 µM: read-out: CDK9 100 nM (RA in %). An excerpt:
In vitro kinase assay analysis may be performed using standard techniques described in the art. These techniques are also used by commercial services providers in order to offer in vitro kinase activity assay services, e.g. the assays offered by Millipore Inc. (worldwide website www(dot)millipore.com), ProQinase GmbH (worldwide website www(dot)proqinase.de) and others.
In vitro kinase inhibition results shown in columns 7 to 9 in Table 1 were obtained by employing the KinaseProfiler™ service of Millipore and used to select compounds displaying specificity for CDK9. Specifically, it was intended to distinguish the CDK9-specific compounds from other compounds having significant inhibitory potency also with regard to other CDKs.

CDK9, sequence (P50750 whole entry): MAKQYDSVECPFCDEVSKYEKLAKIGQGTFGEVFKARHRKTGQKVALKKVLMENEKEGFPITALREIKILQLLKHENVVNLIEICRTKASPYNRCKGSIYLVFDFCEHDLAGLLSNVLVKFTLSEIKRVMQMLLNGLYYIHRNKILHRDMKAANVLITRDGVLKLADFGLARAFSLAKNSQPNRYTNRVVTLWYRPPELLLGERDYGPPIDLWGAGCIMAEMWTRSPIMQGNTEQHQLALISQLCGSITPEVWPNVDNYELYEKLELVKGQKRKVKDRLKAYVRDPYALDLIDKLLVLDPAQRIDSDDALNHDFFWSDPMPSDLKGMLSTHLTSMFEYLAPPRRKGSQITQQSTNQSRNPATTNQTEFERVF
CDK9, sequence (O60563 whole entry partner): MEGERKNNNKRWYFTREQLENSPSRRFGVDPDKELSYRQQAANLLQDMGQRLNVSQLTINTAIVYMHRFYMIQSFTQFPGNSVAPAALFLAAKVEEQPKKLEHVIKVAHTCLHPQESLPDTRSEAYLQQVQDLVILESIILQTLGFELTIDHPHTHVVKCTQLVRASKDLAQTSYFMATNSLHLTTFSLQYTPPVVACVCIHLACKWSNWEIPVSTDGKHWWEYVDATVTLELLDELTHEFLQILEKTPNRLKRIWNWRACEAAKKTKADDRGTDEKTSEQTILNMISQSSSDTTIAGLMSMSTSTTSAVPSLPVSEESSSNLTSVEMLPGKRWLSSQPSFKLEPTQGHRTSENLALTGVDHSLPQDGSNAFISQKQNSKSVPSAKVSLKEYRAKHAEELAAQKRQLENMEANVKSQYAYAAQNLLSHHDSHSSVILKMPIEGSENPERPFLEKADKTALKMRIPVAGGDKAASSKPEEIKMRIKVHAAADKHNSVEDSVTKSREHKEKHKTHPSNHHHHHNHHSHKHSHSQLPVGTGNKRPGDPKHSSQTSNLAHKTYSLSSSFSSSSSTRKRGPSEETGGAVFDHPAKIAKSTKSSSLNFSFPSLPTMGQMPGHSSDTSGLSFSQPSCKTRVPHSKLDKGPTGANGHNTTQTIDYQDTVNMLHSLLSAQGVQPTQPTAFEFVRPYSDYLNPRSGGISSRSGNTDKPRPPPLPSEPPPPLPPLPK

With `COc1ccc(F)cc1-c1ccnc(NC(=O)[C@@H](C)c2ccccc2)c1` [Example 10, (2S)—N-(4-(5-Fluoro-2-methoxyphenyl)pyridin-2-yl)-2-phenylpropanamide], the activity at 3 µM in experiment [1] was 10%. At CDK9, the remaining activity at 0.01 µM is 68% and the remaining activity at 0.1 µM was determined as 10%.

Take `COc1ccc([C@H](C)C(=O)Nc2cc(-c3ccc(F)cc3OC)ccn2)cc1` [Example 11, (2S)—N-(4-(4-Fluoro-2-methoxyphenyl)pyridin-2-yl)-2-(4-methoxyphenyl)-propanamide]: the activity at 3 µM in experiment [1] amounted to 7%. On CDK9, the remaining activity at 0.01 µM came out at 36% and the remaining activity at 0.1 µM worked out at 6%.

On to `COc1cc(F)ccc1-c1ccnc(NC(=O)C(C)c2cccnc2)c1` (stereo not drawn) [Example 13, N-(4-(4-Fluoro-2-methoxyphenyl)pyridin-2-yl)-2-(pyridin-3-yl)propanamide], for which the activity at 3 µM in experiment [1] came to 4%. Also, on CDK9, the remaining activity at 0.01 µM was 66% and the remaining activity at 0.1 µM was 2%.

`COc1ccc(CC(=O)Nc2cc(-c3ccc(F)cc3OC)ccn2)cn1` [Example 14, N-(4-(4-Fluoro-2-methoxyphenyl)pyridin-2-yl)-2-(6-methoxypyridin-3-yl)acetamide]: the activity at 3 µM in experiment [1] was found to be 4%. Also, on CDK9, the remaining activity at 0.01 µM was 25% and the remaining activity at 0.1 µM was determined as 7%.

In the case of `COc1cc(F)ccc1-c1ccnc(NC(=O)C(C)c2ccncc2)c1` (stereo not drawn) [Example 15, N-(4-(4-Fluoro-2-methoxyphenyl)pyridin-2-yl)-2-(pyridin-4-yl)propanamide], in experiment [1], the “Efficacy (ratio to DMSO) TNF-alpha induced response” value is recorded as 0.83. On CDK9, the remaining activity at 0.01 µM was found to be 84% and the “CDK9 100 nM (RA in %)” value is 64%.

Consider `COc1cc(F)ccc1-c1ccnc(NC(=O)C(C)c2ccncc2)c1` (stereo not drawn) [Example 16, N-(4-(4-Fluoro-2-methoxyphenyl)pyridin-2-yl)-2-(pyridin-4-yl)propanamide], for which the “Efficacy (ratio to DMSO) TNF-alpha induced response” value in experiment [1] turned out to be 0.04. Also, at CDK9, the “CDK9 10 nM (RA in %)” value is reported as 65% and the “CDK9 100 nM (RA in %)” value amounted to 7%.

Turning to `COc1ccc(F)cc1-c1ccnc(NC(=O)C(C)c2cccs2)c1` (stereo not drawn) [Example 17, N-(4-(5-Fluoro-2-methoxyphenyl)pyridin-2-yl)-2-(thiophen-2-yl)propanamide], the “Efficacy (ratio to DMSO) TNF-alpha induced response” value in experiment [1] came out at 0.88. In addition, on CDK9, the “CDK9 10 nM (RA in %)” value was found to be 114% and the “CDK9 100 nM (RA in %)” value is 97%.

Turning to `COc1ccc(F)cc1-c1ccnc(NC(=O)C(C)c2cccs2)c1` (stereo not drawn) [Example 18, N-(4-(5-Fluoro-2-methoxyphenyl)pyridin-2-yl)-2-(thiophen-2-yl)propanamide], in experiment [1], the “Efficacy (ratio to DMSO) TNF-alpha induced response” value was found to be 0.07. For the same molecule, on CDK9, the “CDK9 10 nM (RA in %)” value is 32% and the “CDK9 100 nM (RA in %)” value worked out at 5%.

As for `COc1cc(F)ccc1-c1ccnc(NC(=O)Cc2ccnc(Cl)c2)c1` [Example 19, 2-(2-Chloropyridin-4-yl)-N-(4-(4-fluoro-2-methoxyphenyl)pyridin-2-yl)acetamide], the activity at 3 µM in experiment [1] was 6%. Moreover, at CDK9, the remaining activity at 0.01 µM came out at 49% and the remaining activity at 0.1 µM was 9%.

Turning to `COc1cc(F)ccc1-c1ccnc(NC(=O)Cc2ccc(N3CCN(C)CC3)cc2)c1` [Example 20, N-(4-(4-Fluoro-2-methoxyphenyl)pyridin-2-yl)-2-(4-(4-methylpiperazin-1-yl)phenyl)acetamide], the activity at 3 µM in experiment [1] was found to be 8%. In addition, at CDK9, the remaining activity at 0.01 µM was 39% and the remaining activity at 0.1 µM worked out at 5%.

`COc1cc(F)ccc1-c1ccnc(NC(=O)CC(C)c2ccncc2)c1` (stereo not drawn) [Example 21, N-(4-(4-Fluoro-2-methoxyphenyl)pyridin-2-yl)-3-(pyridin-4-yl)butanamide]: in experiment [1], the activity at 3 µM came to 82%. For the same molecule, at CDK9, the remaining activity at 0.01 µM worked out at 88% and the remaining activity at 0.1 µM was 29%.

As to `COc1cc(F)ccc1-c1ccnc(NC(=O)C(C)Cc2ccncc2)c1` (stereo not drawn) [Example 22, N-(4-(4-Fluoro-2-methoxyphenyl)pyridin-2-yl)-2-((pyridin-4-yl)methyl)-propanamide], the activity at 3 µM in experiment [1] was 98%. Moreover, at CDK9, the remaining activity at 0.01 µM was 93% and the remaining activity at 0.1 µM was found to be 39%.

Turning to `COc1cc(F)ccc1-c1ccnc(NC(=O)CC(C)c2cccnc2)c1` (stereo not drawn) [Example 23, N-(4-(4-Fluoro-2-methoxyphenyl)pyridin-2-yl)-3-(pyridin-3-yl)butanamide], in experiment [1], the activity at 3 µM turned out to be 89%. In addition, at CDK9, the remaining activity at 0.01 µM was determined as 95% and the remaining activity at 0.1 µM amounted to 35%.

As to `COc1cc(F)ccc1-c1ccnc(NC(=O)C(C)Cc2cccnc2)c1` (stereo not drawn) [Example 24, N-(4-(4-Fluoro-2-methoxyphenyl)pyridin-2-yl)-2-((pyridin-3-yl)methyl)-propanamide], in experiment [1], the activity at 3 µM was found to be 104%. Also, at CDK9, the remaining activity at 0.01 µM is 92% and the remaining activity at 0.1 µM was determined as 32%.

With `COc1cc(F)ccc1-c1ccnc(NC(=O)C(C)c2ccc(N3CCN(C)CC3)cc2)c1` (stereo not drawn) [Example 27, N-(4-(4-Fluoro-2-methoxyphenyl)pyridin-2-yl)-2-(4-(4-methylpiperazin-1-yl)phenyl)propanamide], in experiment [1], the activity at 3 µM was 8%. Besides, on CDK9, the remaining activity at 0.01 µM was 65% and the remaining activity at 0.1 µM turned out to be 8%.

In the case of `COc1cc(F)ccc1-c1ccnc(NC(=O)C(C)Cc2ccc(N3CCN(C)CC3)cc2)c1` (stereo not drawn) [Example 28, 2-(4-(4-Methylpiperazin-1-yl)benzyl)-N-(4-(4-fluoro-2-methoxyphenyl)-pyridin-2-yl)propanamide], the activity at 3 µM in experiment [1] is 121%. Moreover, on CDK9, the remaining activity at 0.01 µM was determined as 88% and the remaining activity at 0.1 µM was determined as 49%.

As to `COc1cc(F)ccc1-c1ccnc(NC(=O)CC(C)c2ccc(N3CCN(C)CC3)cc2)c1` (stereo not drawn) [Example 29, N-(4-(4-Fluoro-2-methoxyphenyl)pyridin-2-yl)-3-(4-(4-methylpiperazin-1-yl)phenyl)butanamide], in experiment [1], the activity at 3 µM came out at 105%. Moreover, at CDK9, the remaining activity at 0.01 µM came to 95% and the remaining activity at 0.1 µM was determined as 39%.

Turning to `COc1cc(F)ccc1-c1ccnc(NC(=O)[C@H]2CC[C@@H](Nc3ccccn3)CC2)c1` [Example 30, N-(4-(4-Fluoro-2-methoxyphenyl)pyridin-2-yl)-4-(pyridin-2-ylamino)-cis-cyclohexanecarboxamide], the activity at 3 µM in experiment [1] was determined as 3%. Also, on CDK9, the remaining activity at 0.01 µM stood at 29% and the remaining activity at 0.1 µM worked out at 4%.

For the molecule `COc1cc(F)ccc1-c1ccnc(NC(=O)Cc2ccnc(N3CCN(C)CC3)c2)c1` [Example 31, N-(4-(4-Fluoro-2-methoxyphenyl)pyridin-2-yl)-2-(2-(4-methylpiperazin-1-yl)pyridin-4-yl)acetamide], the activity at 3 µM in experiment [1] is 4%. On CDK9, the remaining activity at 0.01 µM came out at 58% and the remaining activity at 0.1 µM is 8%.

As to `COc1cc(F)ccc1-c1ccnc(NC(=O)[C@H]2CC[C@@H](Nc3ccncc3)CC2)c1` [Example 32, cis-N-(4-(4-Fluoro-2-methoxyphenyl)pyridin-2-yl)-4-(pyridin-4-ylamino)-cyclohexanecarboxamide], in experiment [1], the activity at 3 µM stood at 4%. Also, on CDK9, the remaining activity at 0.01 µM stood at 34% and the remaining activity at 0.1 µM came out at 4%.

`COc1cc(F)ccc1-c1ccnc(NC(=O)[C@@H]2CC[C@H](NC(C)=O)C2)c1` [Example 34, (1R,3S)-3-Acetamido-N-(4-(4-fluoro-2-methoxyphenyl)pyridin-2-yl)cyclopentanecarboxamide]: the activity at 3 µM in experiment [1] turned out to be 7%. At CDK9, the remaining activity at 0.01 µM was 50% and the remaining activity at 0.1 µM is 8%.

In the case of `COc1cc(F)ccc1-c1ccnc(NC(=O)[C@H]2CC[C@@H](Nc3nccs3)CC2)c1` [Example 35, cis-N-(4-(4-Fluoro-2-methoxyphenyl)pyridin-2-yl)-4-(thiazol-2-ylamino)-cyclohexanecarboxamide], the activity at 3 µM in experiment [1] came to 2%. Besides, on CDK9, the remaining activity at 0.01 µM was 36% and the remaining activity at 0.1 µM amounted to 4%.
